Measured values from patent US20260193647A1, “MIRNA-BASED CANCER THERAPY WITH A TUMOR-NAVIGATING PEPTIDE” (The Board of Trustees of the Universities of Illinois, priority 2022, published 2026).

How the values were obtained:
[1] = tested on: 3D Human Blood Brain Barrier Model
Method: Permeability experiments were carried out in a 3D Human Blood Brain Barrier Model kit (Alphabioregen, Catalog #EP010). The BBB kits were activated following the manufacturer's instructions. Briefly, the BBB model was thawed using BBB growth medium (#BBB-GM001) and incubated overnight with fresh BBB growth medium. The model was incubated with Endo-Neuro-Pharmaceuticals medium (#NMBBB001) for 3 days. AmiR20-p28 was prepared in assay buffer (Dulbecco's PBS containing CaCl2 and MgCl4, 100 mM HEPES, pH 7.0, 25 mM D-glucose). The permeability of AmiR20-p28 was measured in two directions: apical to basolateral (A-B) and basolateral to apical (B-A). The apical side represented the blood, and the basolateral side represented the brain tissue. For transport, the inserts from the BBB wells were transferred to another well containing prewarmed assay buffer. Depending on the direction, the medium in the donor compartment of the BBB model was replaced with AmiR20-p28. The plate was incubated for 30 min at 37° C. Samples were then collected from the donor and acceptor compartments and analyzed by real-time PCR. The concentrations of AmiR20-p28 in the compartments were calculated based on a standard curve developed with AmiR20-p28 at 1, 10, 100 and 1,000 nM and its relative Ct value obtained from real-time PCR. […]

[2] = tested on: SJ-GBM2 cells, CHLA-200 cells and astrocytes; test: Cellular entry by confocal microscopy; type: cell-based, human; details: 20 μM Alexa Fluor labeled, 2 hr, 37° C.; pGBM cells vs normal astrocytes
Method: p28 or AmiR20-p28 were dissolved in PBS mixed with Alexa Fluor 568 dye (Invitrogen) at a 1:2 peptide/dye ratio 37. Sodium bicarbonate (pH 8.5) was added and incubated at 4° C. with continuous stirring. Alexa Fluor 568 labeled p28 and AmiR20-p28 were dialyzed against cold-PBS using Slide-A-Lyzer Dialysis Cassettes (Pierce Biotechnology). Similarly, p28 was labeled with ICG as described previously.
SJ-GBM2 cells, CHLA-200 cells and astrocytes (2×10^4 cells/well) were cultured on glass slides placed in 24-well plates. After overnight culture, the cells were washed with PBS and incubated with 20 μM Alexa Fluor 568-labeled p28 peptide in medium (5% FBS and without phenol red) for 2 hr at 37° C. Cells were fixed with 2% formalin for 10 min. After washing, slides were prepared and mounted with Vectashield with DAPI (Vector Laboratories, Catalog #94010). Slides were examined by an LSM 710 confocal laser scanning microscope (Zeiss). Images were processed using ZEN software (ZEISS ZEN Lite). As for a GSC marker, the slides were first incubated with Alexa Fluor 568-labeled AmiR20-p28 for 2 hr at 37° C. Cells were fixed with 2% formalin for 10 min. After washing, slides were incubated with blocking buffer for 1 hr at room temperature, followed by consecutive staining with anti-CD133 antibody (1:500, R&D Systems FAB11331G). Slides were washed and mounted with Vectashield containing DAPI. […]

[3] = tested on: SJ-GBM2 spheroids; test: SJ-GBM2 tumor spheroids: uptake and structure; type: cell-based, human
Method: SJ-GBM2 cells, CHLA-200 cells and astrocytes (2×10^4 cells/well) were cultured on glass slides placed in 24-well plates. After overnight culture, the cells were washed with PBS and incubated with 20 μM Alexa Fluor 568-labeled p28 peptide in medium (5% FBS and without phenol red) for 2 hr at 37° C. Cells were fixed with 2% formalin for 10 min. After washing, slides were prepared and mounted with Vectashield with DAPI (Vector Laboratories, Catalog #94010). Slides were examined by an LSM 710 confocal laser scanning microscope (Zeiss). Images were processed using ZEN software (ZEISS ZEN Lite). As for a GSC marker, the slides were first incubated with Alexa Fluor 568-labeled AmiR20-p28 for 2 hr at 37° C. Cells were fixed with 2% formalin for 10 min. After washing, slides were incubated with blocking buffer for 1 hr at room temperature, followed by consecutive staining with anti-CD133 antibody (1:500, R&D Systems FAB11331G). Slides were washed and mounted with Vectashield containing DAPI. Slides were examined by the LSM 710 confocal laser scanning microscope.
SJ-GBM2 spheroids were formed by self-aggregation of cells in the bottoms of non-adherent round bottom 96-well plates (Thermo Scientific, #174925 96U). Suspensions of 10,000 cells in 100 μl volumes of media were pipetted into individual wells and allowed to form cell-cell connections over the course of 3 days.

[4] = tested on: genes associated with the EGFR, p53 and TGF pathways; test: qPCR of downstream targets of miR-20a; type: cell-based, human; details: 10 nM, 24 hr
[5] = tested on: normal human astrocytes; test: CCK-8 cell viability assay, normal human astrocytes; type: cell-based; details: 24 hr
Method: (§1) Cell viability was evaluated by a CCK-8 assay (Dojindo, Japan). Cells were seeded at a density of 4,000 cells per well in 100 μl of growth medium in 96-well plates and grown overnight. Then, the cells were exposed to antisense miR-20a alone, p28 alone or negative control or AmiR20-p28 over a range of concentrations and incubated for 24 hr. According to the manufacturer's instructions, 10 μl of CCK-8 solution was added to each well, followed by incubation for 1 hr at 37° C. The absorbance at 450 nm was determined by a multiplate reader.
Cell viability (%)=Abs(sample)−Abs(blank)/Abs(no treatment)−Abs(blank)×100

[6] = tested on: MDA-MB231, SKOV3, Mia-Paca2, Colon 205 and DU145 cells; test: CCK-8 cell viability assay, other solid tumor cells; type: cell-based, human; details: 10 nM
Method: as §1

## AmiR20-p28: BBB-permeable tumor-navigating CPP p28 (Cys-p28) covalently linked to 2′ O-methyl antisense miR-20a (5′-maleimide)
[1]
  efflux Papp (B-A): 9.5 nm/s
  influx Papp (A-B): 43.9 nm/s
[2]
  cellular entry (confocal images): preferential entry
[3]; 10 nM, 24 and 48 h
  structure of the SJ-GBM2 spheroids: started to disintegrate at 24 h
[3]; 20 μM Alexa Fluor-labeled, 2 hr, 37° C.
  uptake in tumor spheroids: penetrated the tumor spheroids
[4]; LN-229 cells
  EGFR expression levels: decreased EGFR expression levels
  expression of p53, p21, Bax and E2F: significantly increased
[4]; SJ-GBM2 and CHLA-200 cells
  expression levels of EGFR, Ras, MEK1, ERK1, c-Fos, c-Jun, β-catenin, TCF-1 and Lef1 genes: significantly decreased
  expressions of p53, p21, Bax, and E2F: robust increase
[4]; normal human astrocytes
  gene expression levels: no significant effect on gene expression levels
[5]
  effect on cell viability: negligible
[6]
  effect on the viability: little effect on the viability
